The values that follow come from paper PMC11573166, “Sodium-dependent glucose co-transport proteins (SGLTs) are not involved in human glucose taste detection” (PLOS ONE, 2024).

For the test, the target named is T1, human SGLT1 (hSGLT1) (Homo sapiens, UniProt P13866).
T1 construct: gene SLC5A1; Full length human SGLT1 (NP_000334)
T1 sequence (P13866 1-664): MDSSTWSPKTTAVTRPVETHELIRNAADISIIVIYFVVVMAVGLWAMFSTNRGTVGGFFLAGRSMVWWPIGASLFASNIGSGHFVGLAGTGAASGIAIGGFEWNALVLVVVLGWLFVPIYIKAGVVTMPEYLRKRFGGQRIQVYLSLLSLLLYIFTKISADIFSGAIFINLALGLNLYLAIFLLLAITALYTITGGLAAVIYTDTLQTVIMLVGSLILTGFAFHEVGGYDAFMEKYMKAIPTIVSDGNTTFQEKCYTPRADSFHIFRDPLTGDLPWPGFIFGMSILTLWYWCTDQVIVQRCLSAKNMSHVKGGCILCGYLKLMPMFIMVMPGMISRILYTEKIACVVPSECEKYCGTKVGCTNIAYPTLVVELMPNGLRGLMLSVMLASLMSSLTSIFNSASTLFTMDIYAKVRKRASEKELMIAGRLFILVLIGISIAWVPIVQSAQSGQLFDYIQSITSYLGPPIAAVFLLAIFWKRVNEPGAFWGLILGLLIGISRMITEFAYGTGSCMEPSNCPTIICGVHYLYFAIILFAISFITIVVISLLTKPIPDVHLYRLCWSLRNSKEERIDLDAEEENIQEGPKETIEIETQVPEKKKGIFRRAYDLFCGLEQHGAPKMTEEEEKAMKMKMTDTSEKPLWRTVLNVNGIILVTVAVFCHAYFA
As to the kind of experiment: FLIPR membrane potential assay in CHO cells transiently expressing hSGLT1; mock-transfected cells did not respond. The format is cell-based.

By EC50 is commonly meant the concentration needed to bring the measured effect to its halfway point.

As for `OC[C@H]1OC(O)[C@H](O)[C@@H](O)[C@@H]1O` (stereo partly drawn) [D-glucose], the 50% effective concentration (EC50) was 452 µM.
